The test relates to D2.mdx mice. Briefly: Seven-day GKT831 treatment of six-month-old D2.mdx mice (apoptosis, gene expression). The conditions noted are these: gastrocnemius, 60 mg/kg, seven days, vs vehicle. The format is in vivo, mouse. Here is the method: Mice were housed 3-5 mice per cage, randomly assigned into groups, provided ad libitum access to food (NIH-31 Open formulation diet; Envigo #7917), water, and enrichment, and maintained on a 12-hour light/dark system. Once daily (Q.D.) GKT831 (purchased from Ambeed, Inc.) was administered orally (P.O.) suspended at a concentration of 36 mg/mL in a vehicle consisting of sterilized sunflower seed oil (Sigma-Aldrich). […] The GKT831 treatment group received a dose of 60 mg/kg (21). All animal procedures were approved and conducted in accordance with the University of Florida IACUC and reported using the recommendations of ARRIVE guidelines.
OCT-embedded murine tissues were cryo-sectioned at […] and fixed in 4% PFA. Immunofluorescent analysis was performed using anti-NOX4 (1:2000; Abcam #13303), anti-laminin (1:800; Novus #MAB2549), anti-vimentin (1:1000; Novus #MB300), anti-PDGFRα (1:500; R&D Systems #AF1062), anti-SMA (1:1000; Abcam #ab5694), anti-periostin (1:500, Abcam #ab14041), anti-Pax7 (1:100; R&D Systems #MAB1675), anti-Myosin X (1:800; Sigma #HPA024223) and anti-active caspase-3 (1:1000; Cell Signaling 49661) primary antibodies. Mouse tissue sections incubated with mouse monoclonal antibodies were first incubated with a solution containing donkey anti-mouse IgG AffiniPure Fab fragments (1:25 in PBS; Jackson ImmunoResearch #715-007-003) for one hour prior to blocking. Following overnight incubation in primary antibody, sections were rinsed with PBS and incubated with the appropriate species-specific secondary antibody (1:500 dilution). Lipofuscin-dependent autofluorescence was quenched using a 0.1% solution of Sudan black B following secondary antibody incubation. Slides were cover-slipped using Prolong Gold mounting reagent (Invitrogen). Images were acquired using a Leica SP8 confocal microscope. All comparative images were stained simultaneously and acquired using identical settings. Human samples were obtained through the National Disease Research Interchange (Philadelphia, PA).
Gene expression analysis was conducted as previously described (17) using the following mouse-specific primers: Col1a2 (forward) 5′-ATGGTGGCAGCCAGTTTGAA-3′ (SEQ ID NO: 1) and (reverse) 5′-TCCAGGTACGCAATGCTGTT-3′ (SEQ ID NO: 2); Acta2 (forward) 5′-CTACTGCCGAGCGTGAGATTGTCC-3′ (SEQ ID NO: 3) and (reverse) 5′-GAGGGCCCAGCTTCGTCGTATT-3′ (SEQ ID NO: 4); 116 (forward) 5′-AACCACGGCCTTCCCTACTTC-3′ (SEQ ID NO: 5) and (reverse) 5′-TCTGGCTTTGTCTTTCTTGTTATC-3′ (SEQ ID NO: 6); Tgfb1 (forward) 5′-GACTCTCCACCTGCAAGACCAT-3′ (SEQ ID NO: 7) and (reverse) 5′-GGGACTGGCGAGCCTTAGTT-3′ (SEQ ID NO: 8); Gapdh (forward) 5′-AGCAGGCATCTGAGGGCCCA-3′ (SEQ ID NO: 9) and (reverse) 5′-TGTTGGGGGCCGAGTTGGGA-3′ (SEQ ID NO: 10). Relative gene expression quantification was performed using the ΔΔCt method with Gapdh as the normalization gene.
Because the presumed mechanism attributed to myofibroblast clearance has been that of promoting their apoptosis (20), a short-term study was performed to investigate acute changes in muscle that result from NOX4 inhibition.

The text below walks through data of patent US20250223560A1, “NOX4 INHIBITOR COMPOSITIONS AND METHODS FOR REGENERATION OF DYSTROPHIC MUSCLE” (FULCRUM THERAPEUTICS, INC., priority 2022, published 2025).

Molecules are shown by their SMILES.

As to `CN(C)c1cccc(-c2c3c(=O)n(-c4ccccc4Cl)[nH]c3cc(=O)n2C)c1` [FTX1620, Setanaxib], the “PDGFRα+ cells positive for active Caspase-3” value is recorded as “significantly more”. For the setting “real-time PCR”, the Acta2 expression result is on record as “decreased expression”, the Col1a2 expression entry is “decreased expression”, the Il6 expression result is given as “decreased expression” and the Tgfb1 expression result was “decreased expression”.
